According to publication PMC11952493 (bioRxiv, 2025):
Where no end group is shown, it is not given here.

Target: T1, Recombinant Human FAPα (Homo sapiens, UniProt Q12884)
T1 sequence (Q12884 1-760): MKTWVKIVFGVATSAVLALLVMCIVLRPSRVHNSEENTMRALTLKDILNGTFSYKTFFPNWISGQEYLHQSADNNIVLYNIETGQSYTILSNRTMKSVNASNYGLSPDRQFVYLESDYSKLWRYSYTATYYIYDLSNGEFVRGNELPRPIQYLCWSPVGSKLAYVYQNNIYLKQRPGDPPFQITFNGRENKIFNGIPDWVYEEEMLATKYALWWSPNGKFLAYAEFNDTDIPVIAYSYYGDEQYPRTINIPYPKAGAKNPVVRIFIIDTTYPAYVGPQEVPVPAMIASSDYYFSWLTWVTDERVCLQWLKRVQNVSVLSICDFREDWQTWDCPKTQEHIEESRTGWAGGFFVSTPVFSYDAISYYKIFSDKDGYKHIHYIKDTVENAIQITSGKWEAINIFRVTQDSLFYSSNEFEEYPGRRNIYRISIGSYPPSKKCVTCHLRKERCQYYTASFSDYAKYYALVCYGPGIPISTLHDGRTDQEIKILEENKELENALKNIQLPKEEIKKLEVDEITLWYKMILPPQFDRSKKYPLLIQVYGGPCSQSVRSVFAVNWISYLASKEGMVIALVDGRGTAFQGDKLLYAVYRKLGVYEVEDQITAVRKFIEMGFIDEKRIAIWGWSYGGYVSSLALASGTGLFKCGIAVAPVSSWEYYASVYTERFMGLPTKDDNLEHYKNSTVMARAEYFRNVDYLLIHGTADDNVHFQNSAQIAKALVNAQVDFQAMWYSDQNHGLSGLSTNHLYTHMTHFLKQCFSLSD
Experiment: Fluorogenic substrate cleavage assay with FAPα
Assay type: biochemical
Settings: 200 μM substrate, 37°C; 10 nM FAPα, 2 nM DPP4, 6 nM DPP9, 3-6 nM PREP

Sequence | selectivity for FAPα over DPP4, DPP9 and PREP (in words)
AACSFRINSLCG (also: sidechain bridge or staple (positions not given here)) [FAP-24] | highest specificity
AACVSFQNLDCG (also: sidechain bridge or staple (positions not given here)) [FAP-33] | highest specificity
